The text below walks through data of patent US20100029657A1, “Bridged, Bicyclic Heterocyclic or Spiro Bicyclic Heterocyclic Derivatives of Pyrazolo[1, 5-A]Pyrimidines, Methods for Preparation and Uses Thereof” (Wyeth, priority 2008, published 2010).

For this assay, the target named is T1, Flag/GST-tagged recombinant human B-Raf (Homo sapiens, UniProt P15056).
T1 construct: Flag; GST; made in house; host or cells: Sf9 insect cells (B-Raf); E. coli (MEK1-GST)
Nature of the assay: B-Raf kinase assay (phosphorylation of GST-MEK1, phospho-MEK1 antibody/Europium detection). Format: biochemical. The settings on record: B-Raf IC50 Data for compounds of Formula A. Here is the method:
B-Raf1 Kinase Assay Procedure: B-Raf-1 is used to phosphorylate GST-MEK1.
• 1. Assay Dilution Buffer (ADB): 20 mM MOPS, pH 7.2, 25 mM β-glycerol phosphate, 5 mM EGTA, 1 mM sodium orthovanadate, 1 mM dithiothreitol, 0.01% Triton X-100. • 2. Magnesium/ATP Cocktail: ADB solution (minus Triton X-100) plus 200 μM cold ATP and 40 mM magnesium chloride. • 4. Active Kinase: Active B-Raf: Used at 0.2 nM per assay point. • 5. […] TBST—Tris (50 mM, pH 7.5), NaCl (150 mM), Tween-20 (0.05%) • 7. Anti-GST Ab (GE) • 8. Anti pMEK Ab (Upstate) • 9. Anti-rabbit Ab/Europium conjugate (Wallac).
B-Raf Assay Procedure: • 1. Added 25 μL of ADB containing B-Raf and Mek per assay (i.e. per well of a 96 well plate) • 2. Added 25 μL of 0.2 mM ATP and 40 mM magnesium chloride in Magnesuium/ATP Cocktail. • 3. Incubated for 45 minutes at RT with occasional shaking. • 4. Transferred this mixture to an anti-GST Ab coated 96 well plate (Nunc Immunosorb plates coated o/n with a-GST. Plate freshly washed 3×with TBS-T before use. • 5. Incubated o/n at […] in cold room. • 6. Washed 3× with TBST, ed Anti-Phospho MEK1 (1:1000, dilution depended upon lot) • 7. Incubated for 60 minutes at RT in a shaking incubator • 8. Washed 3× with TBST, add Anti-rabbit Ab/Europium conjugate (Wallac) (1:500, dilution depended upon lot) • 9. Incubated for 60 minutes at RT on a platform shaker. • 10. Washed plate 3× with TBS-T • 11. Added 100 μL of Wallac Delfia Enhancement Solution and agitated for 10 minutes. • 12. Read plates in Wallac Victor model Plate Reader. • 13.
The % inhibition was determined for each compound concentration.

The structures appear in SMILES notation. Read-outs that look alike come from different tables or passages of the source.

T1 sequence (P15056 whole entry): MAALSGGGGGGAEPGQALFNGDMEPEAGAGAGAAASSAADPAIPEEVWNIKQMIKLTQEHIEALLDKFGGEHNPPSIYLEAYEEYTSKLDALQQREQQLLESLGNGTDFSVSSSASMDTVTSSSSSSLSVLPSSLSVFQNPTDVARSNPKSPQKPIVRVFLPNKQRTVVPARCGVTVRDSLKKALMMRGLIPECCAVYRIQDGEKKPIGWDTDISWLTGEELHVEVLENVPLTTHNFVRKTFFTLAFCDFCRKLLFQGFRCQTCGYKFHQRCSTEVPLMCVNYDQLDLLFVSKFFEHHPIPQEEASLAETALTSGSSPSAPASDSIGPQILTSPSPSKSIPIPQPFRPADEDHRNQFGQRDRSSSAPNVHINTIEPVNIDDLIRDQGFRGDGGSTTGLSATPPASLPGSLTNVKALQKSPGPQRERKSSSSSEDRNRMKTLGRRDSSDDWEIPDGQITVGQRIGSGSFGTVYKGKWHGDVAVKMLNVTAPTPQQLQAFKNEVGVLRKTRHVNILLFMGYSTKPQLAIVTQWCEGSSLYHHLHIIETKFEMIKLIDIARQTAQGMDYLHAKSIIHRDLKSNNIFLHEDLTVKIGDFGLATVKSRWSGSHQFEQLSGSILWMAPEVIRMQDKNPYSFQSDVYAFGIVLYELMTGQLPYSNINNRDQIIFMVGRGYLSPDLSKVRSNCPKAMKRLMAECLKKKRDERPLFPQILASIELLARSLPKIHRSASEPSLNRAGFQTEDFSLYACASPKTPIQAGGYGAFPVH

As to `CCN1C2CCC1CC(c1ccnc3c(-c4ccnc(OC)c4)c(-c4ccncc4)nn13)C2` (stereo not drawn) [Example 20, 7-(8-Ethyl-8-azabicyclo[3.2.1]octan-3-yl)-3-(2-methoxypyridin-4-yl)-2-(pyridin-4-yl)pyrazolo[1,5-a]pyrimidine], the half-maximal inhibitory concentration (IC50) (commonly the concentration that inhibits the measured activity by half) (read-out: Mean IC50) was 0.835 µM. On the same count and under the same terms, then `CCN1C2CCC1CC(c1ccnc3c(-c4ccnc(O)c4)c(-c4ccncc4)nn13)C2` (stereo not drawn) [Example 21, 4-(7-(8-Ethyl-8-azabicyclo[3.2.1]octan-3-yl)-2-(pyridin-4-yl)pyrazolo[1,5-a]pyrimidin-3-yl)pyridin-2-ol], with over 1 µM; and `CCN1C2CCC1CC(c1ccnc3c(-c4ccc(N)cc4)c(-c4ccncc4)nn13)C2` (stereo not drawn) [Example 22, 4-(7-(8-Ethyl-8-azabicyclo[3.2.1]octan-3-yl)-2-(pyridin-4-yl)pyrazolo[1,5-a]pyrimidin-3-yl)aniline], with over 1 µM; and `CCN1C2CCC1CC(c1ccnc3c(-c4ccc(NC(N)=O)cc4)c(-c4ccncc4)nn13)C2` (stereo not drawn) [Example 23, 1-(4-(7-(8-Ethyl-8-azabicyclo[3.2.1]octan-3-yl)-2-(pyridin-4-yl)pyrazolo[1,5-a]pyrimidin-3-yl)phenyl)urea], with over 1 µM. On to `CN1C2CCC1CN(c1ccc(-c3ccnc4c(-c5cccc(O)c5)c(-c5ccncc5)nn34)cc1)C2` [Example 25, 3-{7-[4-(8-Methyl-3,8-diaza-bicyclo[3.2.1]oct-3-yl)-phenyl]-2-pyridin-4-yl-pyrazolo[1,5-a]pyrimidin-3-yl}-phenol], for which the concentration for half-maximal inhibition (IC50) (read-out: Mean IC50) was determined as 0.001 µM.

Turning to `COc1cc(-c2c(-c3ccncc3)nn3c(-c4ccc(N5CC6CCC(C5)N6C)cc4)ccnc23)ccc1Cl` [Example 26, 3-(4-Chloro-3-methoxy-phenyl)-7-[4-(8-methyl-3,8-diaza-bicyclo[3.2.1]oct-3-yl)-phenyl]-2-pyridin-4-yl-pyrazolo[1,5-a]pyrimidine], where the note is “Mean IC50 (uM)”, the IC50 came to 0.01 µM. For the molecule `CN1C2CCC1CN(c1ccc(-c3ccnc4c(-c5ccc(Cl)c(O)c5)c(-c5ccncc5)nn34)cc1)C2` [Example 27, 2-Chloro-5-{7-[4-(8-methyl-3,8-diaza-bicyclo[3.2.1]oct-3-yl)-phenyl]-2-pyridin-4-yl-pyrazolo[1,5-a]pyrimidin-3-yl}-phenol], the IC50 (Mean IC50 (uM)) is under 0.0003 µM. On to `COc1cccc(-c2c(-c3ccncc3)nn3c(-c4ccc(N5C[C@@H]6C[C@H]5CN6)cc4)ccnc23)c1` [Example 28, 7-[4-((1S,4S)-2,5-Diaza-bicyclo[2.2.1]hept-2-yl)-phenyl]-3-(3-methoxy-phenyl)-2-pyridin-4-yl-pyrazolo[1,5-a]pyrimidine], for which the IC50 (read-out: Mean IC50) stood at 0.016 µM. Consider `Oc1cccc(-c2c(-c3ccncc3)nn3c(-c4ccc(N5C[C@@H]6C[C@H]5CN6)cc4)ccnc23)c1` [Example 29, 3-{7-[4-((1S,4S)-2,5-Diaza-bicyclo[2.2.1]hept-2-yl)-phenyl]-2-pyridin-4-yl-pyrazolo[1,5-a]pyrimidin-3-yl}-phenol], for which, for the setting “read-out: Mean IC50”, the half-inhibitory concentration (IC50) came out at 0.0005 µM. On the same count and under the same terms, the result for `CN1C[C@@H]2C[C@H]1CN2c1ccc(-c2ccnc3c(-c4cccc(O)c4)c(-c4ccncc4)nn23)cc1` [Example 30, 3-{7-[4-((1S,4S)-5-Methyl-2,5-diaza-bicyclo[2.2.1]hept-2-yl)-phenyl]-2-pyridin-4-yl-pyrazolo[1,5-a]pyrimidin-3-yl}-phenol] reads under 0.003 µM; that for `COc1cc(-c2c(-c3ccncc3)nn3c(-c4ccc(N5C[C@@H]6C[C@H]5CN6)cc4)ccnc23)ccc1Cl` [Example 31, 7-(4-((1S,4S)-2,5-Diaza-bicyclo[2.2.1]heptan-2-yl)phenyl)-3-(4-chloro-3-methoxyphenyl)-2-(pyridin-4-yl)pyrazolo[1,5-a]pyrimidine], 0.0018 µM; that for `COc1cc(-c2c(-c3ccncc3)nn3c(-c4ccc(N5C[C@@H]6C[C@H]5CN6)cc4)ccnc23)ccc1F` [Example 32, 7-(4-((1S,4S)-2,5-Diaza-bicyclo[2.2.1]heptan-2-yl)phenyl)-3-(4-fluoro-3-methoxyphenyl)-2-(pyridin-4-yl)pyrazolo[1,5-a]pyrimidine], 0.0087 µM. The same measure, in the same setting: the result for `Oc1cc(-c2c(-c3ccncc3)nn3c(-c4ccc(N5C[C@@H]6C[C@H]5CN6)cc4)ccnc23)ccc1F` [Example 33, 5-(7-(4-((1S,4S)-2,5-Diazabicyclo[2.2.1]heptan-2-yl)phenyl)-2-(pyridin-4-yl)pyrazolo[1,5-a]pyrimidin-3-yl)-2-fluorophenol] reads under 0.0003 µM; that for `CN1C[C@@H]2C[C@H]1CN2c1ccc(-c2ccnc3c(-c4cccc5[nH]ncc45)c(-c4ccncc4)nn23)cn1` [Example 34, 3-(1H-Indazol-4-yl)-7-(6-((1S,4S)-5-methyl-2,5-diazabicyclo[2.2.1]heptan-2-yl)pyridin-3-yl)-2-(pyridin-4-yl)pyrazolo[1,5-a]pyrimidine], 0.0023 µM. Regarding `CN1C[C@@H]2C[C@H]1CN2c1ccc(-c2ccnc3c(-c4cccc5[nH]ncc45)c(-c4ccncc4)nn23)cc1` [Example 35, 3-(1H-indazol-4-yl)-7-(4-((1S,4S)-5-methyl-2,5-diazabicyclo[2.2.1]heptan-2-yl)phenyl)-2-(pyridin-4-yl)pyrazolo[1,5-a]pyrimidine], where the note is “read-out: Mean IC50”, the half-inhibitory concentration (IC50) came out at 0.0015 µM.

With `COc1cccc(-c2c(-c3ccncc3)nn3c(-c4ccc(N5C[C@@H]6C[C@H]5CN6C)cc4)ccnc23)c1` [Example 36, 3-(3-Methoxyphenyl)-7-(4-((1S,4S)-5-methyl-2,5-diazabicyclo[2.2.1]heptan-2-yl)phenyl)-2-(pyridin-4-yl)pyrazolo[1,5-a]pyrimidine], for the setting “read-out: Mean IC50”, the IC50 came to 0.0082 µM. Still for that read-out and setting: then `COc1cc(-c2c(-c3ccncc3)nn3c(-c4ccc(N5C[C@@H]6C[C@H]5CN6C)cc4)ccnc23)ccc1F` [Example 37, 3-(4-Fluoro-3-methoxyphenyl)-7-(4-((1S,4S)-5-methyl-2,5-diazabicyclo[2.2.1]heptan-2-yl)phenyl)-2-(pyridin-4-yl)pyrazolo[1,5-a]pyrimidine], with 0.021 µM; and `CCN1C[C@@H]2C[C@H]1CN2c1ccc(-c2ccnc3c(-c4ccc(F)c(O)c4)c(-c4ccncc4)nn23)cc1` [Example 38, 5-(7-(4-((1S,4S)-5-Ethyl-2,5-diazabicyclo[2.2.1]heptan-2-yl)phenyl)-2-(pyridin-4-yl)pyrazolo[1,5-a]pyrimidin-3-yl)-2-fluorophenol], with 0.0005 µM. The same measure, in the same setting: the result for `CC(=O)N1C[C@@H]2C[C@H]1CN2c1ccc(-c2ccnc3c(-c4ccc(F)c(O)c4)c(-c4ccncc4)nn23)cc1` [Example 39, 1-((1S,4S)-5-(4-(3-(4-Fluoro-3-hydroxyphenyl)-2-(pyridin-4-yl)pyrazolo[1,5-a]pyrimidin-7-yl)phenyl)-2,5-diazabicyclo[2.2.1]heptan-2-yl)ethanone] reads 0.0005 µM; that for `Cc1ccc(-c2c(-c3ccncc3)nn3c(-c4ccc(N5C[C@@H]6C[C@H]5CN6C)nc4)ccnc23)c2cn[nH]c12` [Example 40, 3-(7-Methyl-1H-indazol-4-yl)-7-(6-((1S,4S)-5-methyl-2,5-diazabicyclo[2.2.1]heptan-2-yl)pyridin-3-yl)-2-(pyridin-4-yl)pyrazolo[1,5-a]pyrimidine], 0.0007 µM; that for `CN1C[C@@H]2C[C@H]1CN2c1ccc(-c2ccnc3c(-c4ccc(Cl)c5[nH]ncc45)c(-c4ccncc4)nn23)cn1` [Example 41, 3-(7-Chloro-1H-indazol-4-yl)-7-(6-((1S,4S)-5-methyl-2,5-diazabicyclo[2.2.1]heptan-2-yl)pyridin-3-yl)-2-(pyridin-4-yl)pyrazolo[1,5-a]pyrimidine], under 0.0003 µM.
